Test results reported in patent publication US8178506B2, “Oligomeric compounds and compositions for use in modulation of small non-coding RNAs” (Regulus Therapeutics Inc., priority 2003, dated 2012).
In the oligonucleotide strings, read from the 5' end, every base follows the letter of its sugar. An asterisk marks phosphorothioate; unmarked linkages are phosphodiester. Other units and linkages are bracketed, terminal groups are in braces. A string of capitals states the bases alone. e = 2'-O-(2-methoxyethyl) (MOE); [5mC] = 5-methylcytosine

Test system: mir-21 pri-miRNA
Experiment: mir-21 pri-miRNA expression in HeLa cells (real-time RT-PCR)
Format: cell-based, human
Settings: HeLa cells, 100 nM, real-time RT-PCR

327917 (antisense eT*e[5mC]*eA*eA*e[5mC]*eA*eT*e[5mC]*eA*eG*eT*e[5mC]*eT*eG*eA*eT*eA*eA*eG*e[5mC]*eT*eA) [compound 327917]
mir-21 pri-miRNA expression % UTC: 249 % UTC
